The target in the experiment is T1, human TLR9 (Homo sapiens, UniProt Q9NR96).
T1 construct: host or cells: HEK-Blue cells (HEK293-derived reporter line)
T1 sequence (Q9NR96 26-1032): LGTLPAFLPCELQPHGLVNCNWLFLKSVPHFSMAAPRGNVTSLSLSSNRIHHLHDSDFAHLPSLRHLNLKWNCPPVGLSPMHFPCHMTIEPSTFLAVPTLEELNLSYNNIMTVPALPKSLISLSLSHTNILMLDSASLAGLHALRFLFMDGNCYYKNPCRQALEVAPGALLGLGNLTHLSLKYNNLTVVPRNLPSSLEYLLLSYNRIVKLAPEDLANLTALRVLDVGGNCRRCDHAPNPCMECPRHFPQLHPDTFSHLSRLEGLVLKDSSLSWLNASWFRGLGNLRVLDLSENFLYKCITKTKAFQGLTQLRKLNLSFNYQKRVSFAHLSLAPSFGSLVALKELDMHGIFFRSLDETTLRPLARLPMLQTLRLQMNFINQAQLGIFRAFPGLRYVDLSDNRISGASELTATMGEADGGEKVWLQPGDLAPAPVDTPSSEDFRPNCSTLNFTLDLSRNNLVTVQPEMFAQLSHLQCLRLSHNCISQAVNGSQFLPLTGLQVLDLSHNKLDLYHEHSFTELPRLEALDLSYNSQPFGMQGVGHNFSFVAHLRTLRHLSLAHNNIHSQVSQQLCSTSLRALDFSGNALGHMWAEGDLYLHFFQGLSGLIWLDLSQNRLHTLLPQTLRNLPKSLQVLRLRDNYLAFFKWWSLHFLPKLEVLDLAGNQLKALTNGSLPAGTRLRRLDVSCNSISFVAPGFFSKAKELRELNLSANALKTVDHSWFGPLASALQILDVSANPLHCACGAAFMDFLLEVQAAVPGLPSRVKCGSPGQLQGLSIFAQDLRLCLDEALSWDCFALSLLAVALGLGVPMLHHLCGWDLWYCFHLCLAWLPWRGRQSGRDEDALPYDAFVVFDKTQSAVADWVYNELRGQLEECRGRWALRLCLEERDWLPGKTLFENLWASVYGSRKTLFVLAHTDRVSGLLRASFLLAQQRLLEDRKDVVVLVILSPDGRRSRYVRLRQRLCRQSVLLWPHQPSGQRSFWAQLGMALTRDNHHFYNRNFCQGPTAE
Nature of the experiment: TLR9 inhibition reporter assay (HEK-Blue cells, secreted embryonic alkaline phosphatase reporter). It is filed as cell-based. The protocol: TLR7/8/9 Inhibition Reporter Assays
HEK-Blue™-cells (Invivogen) overexpressing human TLR7, TLR8 or TLR9 receptors were used for screening inhibitors of these receptors using an inducible SLAP (secreted embryonic alkaline phosphatase) reporter gene under the control of the […] minimal promoter fused to five NF-κB and AP-1-binding sites. Briefly, cells are seeded into Greiner 384 well plates (15000 cells per well for TLR7, 20,000 for TLR8 and 25,000 for TLR9) and then treated with test compounds in DMSO to yield a final dose response concentration range of 0.05 nM-50 μM. After a 30 minute compound pre-treatment at room temperature, the cells are then stimulated with a TLR7 ligand (gardiquimod at a final concentration of 7.5 μM), TLR8 ligand (R848 at a final concentration of 15.9 μM) or TLR9 ligand (ODN2006 at a final concentration of 5 nM) to activate NF-κB and AP-1 which induce the production of SLAP. After a 22 hour incubation at 37° C., […], SLAP levels are determined with the addition of HEK-Blue™ Detection reagent (Invivogen), a cell culture medium that allows for detection of SLAP, according to manufacturer's specifications. The percent inhibition is determined as the […] in the HEK-Blue signal present in wells treated with agonist plus DMSO alone compared to wells treated with a known inhibitor.
Background: A reporter such as luciferase makes a cellular process visible.

Setting [1] is: HEK-Blue cells overexpressing human TLR9, stimulated with ODN2006 5 nM, read-out: TLR 9 IC50.
[2] abbreviates: HEK-Blue cells overexpressing human TLR9, stimulated with ODN2006 5 nM, 22 hour incubation, reporter readout.
Where [3] appears, read: HEK-Blue human TLR9 reporter cells.

Like-named read-outs stand apart in the source and are kept apart here.

Take `COc1ccc(-c2nc3c(C)cc(C4CCN(C5CC6CCC(C5)N6CC5CCC5)CC4)cc3n2C)cc1OC` (single isomer, unassigned) [Example 151, 6-(1-(8-(cyclobutylmethyl)-8-azabicyclo[3.2.1]octan-3-yl)piperidin-4-yl)-2-(3,4-dimethoxyphenyl)-1,4-dimethyl-1H-benzo[d]imidazole]: the 50% inhibitory concentration (IC50) (usually the concentration needed to halve the response being measured) worked out at 170 nM. Further, the IC50 under setting [1] was 172 nM.

For the compound `Cc1cc(C2CCN(C3CCN(CC(C)C)CC3)CC2)cc2[nH]c(-c3ccc(S(C)(=O)=O)c(F)c3)nc12` [Example 66, 2-(3-fluoro-4-(methylsulfonyl)phenyl)-6-(1′-isobutyl-[1,4′-bipiperidin]-4-yl)-4-methyl-1H-benzo[d]imidazole], the IC50 by setting is: under setting [2], 69 nM; under setting [1], 69 nM.

As to `Cc1cc(C2CCN(C3CCN(CC(C)C)CC3)CC2)cc2[nH]c(-c3ccc(OC(F)F)cc3)nc12` [Example 78, 2-(4-(difluoromethoxy)phenyl)-6-(1′-isobutyl-[1,4′-bipiperidin]-4-yl)-4-methyl-1H-benzo[d]imidazole], the IC50 under setting [2] worked out at 270 nM and the IC50 under setting [1] amounted to 267 nM.

Under setting [2], `COc1ccc(-c2nc3c(F)cc(C4CCN(C5CCN(C(C)C)CC5)CC4)cc3[nH]2)cc1OC` [Example 83, 2-(3,4-dimethoxyphenyl)-4-fluoro-6-(1′-isopropyl-[1,4′-bipiperidin]-4-yl)-1H-benzo[d]imidazole] had a half-maximal inhibitory concentration (IC50) of 210 nM.

Consider `Cc1cc(C2CCN(C3CCN(CC(C)C)CC3)CC2)cc2[nH]c(-c3cccc(OC(F)F)c3)nc12` [Example 76, 2-(3-(difluoromethoxy)phenyl)-6-(1′-isobutyl-[1,4′-bipiperidin]-4-yl)-4-methyl-1H-benzo[d]imidazole], for which the IC50 is 260 nM under setting [2] and 257 nM under setting [1].

For `Cc1cc(C2CCN(C3CC4CCC(C3)N4C3CC3)CC2)cc2c1nc(-c1ccc(S(C)(=O)=O)c(F)c1)n2C` (stereo not shown) [Example 345, 6-(1-(8-cyclopropyl-8-azabicyclo[3.2.1]octan-3-yl)piperidin-4-yl)-2-(3-fluoro-4-(methylsulfonyl)phenyl)-1,4-dimethyl-1H-benzo[d]imidazole], the half-maximal inhibitory concentration (IC50) was 132 nM under setting [1] and 130 nM under setting [3].

In the case of `Cc1cc(C2CCN(C3CC4CCC(C3)N4C3CCC3)CC2)cc2[nH]c(-c3ccc(S(C)(=O)=O)c(F)c3)nc12` (stereo not shown) [Example 350, 6-(1-(8-cyclobutyl-8-azabicyclo[3.2.1]octan-3-yl)piperidin-4-yl)-2-(3-fluoro-4-(methylsulfonyl)phenyl)-4-methyl-1H-benzo[d]imidazole], the half-inhibitory concentration (IC50) under setting [1] is 55 nM and inhibition under setting [3] was half-maximal at 55 nM (IC50).

With `Cc1cc(C2CCN(C3CC4CCC(C3)N4C3CCC3)CC2)cc2[nH]c(-c3ccc(S(C)(=O)=O)c(F)c3)nc12` (stereo not shown) [Example 349, 6-(1-(8-cyclobutyl-8-azabicyclo[3.2.1]octan-3-yl)piperidin-4-yl)-2-(3-fluoro-4-(methylsulfonyl)phenyl)-4-methyl-1H-benzo[d]imidazole], the IC50 runs as follows: under setting [1], 24 nM; under setting [3], 24 nM.

With `COc1ccc(-c2nc3ccc(C4CCN(C5CCN(C6CC6)CC5)CC4)c(F)c3[nH]2)cc1OC` [Example 175, 6-(1′-cyclopropyl-[1,4′-bipiperidin]-4-yl)-2-(3,4-dimethoxyphenyl)-7-fluoro-1H-benzo[d]imidazole], the IC50 was 530 nM. Moreover, the IC50 under setting [1] is 527 nM.

For the compound `Cc1cc(C2CCN(C3CC4CCC(C3)N4CC3CC3)CC2)cc2[nH]c(-c3ccc(S(C)(=O)=O)c(F)c3)nc12` (stereo not shown) [Example 351, 6-(1-(8-(cyclopropylmethyl)-8-azabicyclo[3.2.1]octan-3-yl)piperidin-4-yl)-2-(3-fluoro-4-(methylsulfonyl)phenyl)-4-methyl-1H-benzo[d]imidazole], the half-maximal inhibitory concentration (IC50) under setting [1] was determined as 48 nM and it took 48 nM to reach half-maximal inhibition under setting [3] (IC50).

On to `COc1ccc(-c2nc3c(C)cc(C4CCN(C5CC6CCC(C5)N6C(C)C)CC4)cc3n2C)cc1OC` (stereo not shown) [Example 144, 2-(3,4-dimethoxyphenyl)-6-(1-(8-isopropyl-8-azabicyclo[3.2.1]octan-3-yl)piperidin-4-yl)-1,4-dimethyl-1H-benzo[d]imidazole], for which it took 62 nM to reach half-maximal inhibition (IC50). Further, the IC50 under setting [1] came out at 62 nM.

With `COc1ccc(-c2nc3c(C)cc(C4CCN(C5CCN(CC(C)C)CC5)CC4)cc3[nH]2)cc1Cl` [Example 64, 2-(3-chloro-4-methoxyphenyl)-6-(1′-isobutyl-[1,4′-bipiperidin]-4-yl)-4-methyl-1H-benzo[d]imidazole], the IC50 was determined as 91 nM under setting [2] and 91 nM under setting [1].

In the case of `Cc1cc(CN2CCC(c3cc(C)c4nc(-c5ccc(S(C)(=O)=O)cc5)n(C)c4c3)CC2)cc(C)n1` [Example 418, 6-(1-((2,6-dimethylpyridin-4-yl)methyl)piperidin-4-yl)-1,4-dimethyl-2-(4-(methylsulfonyl)phenyl)-1H-benzo[d]imidazole], the 50% inhibitory concentration (IC50) amounted to 2500 nM under setting [2] and 2510 nM under setting [1].

Regarding `Cc1cc(C2CCN(C3CCN(CC(C)C)CC3)CC2)cc2[nH]c(-c3ccc4c(c3)OC(F)(F)O4)nc12` [Example 65, 2-(2,2-difluorobenzo[d][1,3]dioxol-5-yl)-6-(1′-isobutyl-[1,4′-bipiperidin]-4-yl)-4-methyl-1H-benzo[d]imidazole tris(2,2,2-trifluoroacetate)], the IC50 runs as follows: under setting [2], 300 nM; under setting [1], 297 nM.

Regarding `CC(C)CN1CCC(N2CCC(c3ccc4nc(-c5ccc(S(C)(=O)=O)cc5)n(C5CC5)c4c3F)CC2)CC1` [Example 415, 1-cyclopropyl-7-fluoro-6-(1′-isobutyl-[1,4′-bipiperidin]-4-yl)-2-(4-(methylsulfonyl)phenyl)-1H-benzo[d]imidazole], the IC50 under setting [2] is 65 nM and the IC50 under setting [1] was 65 nM.

Regarding `Cc1cc(C2CCN(C3CCN(CC(C)C)CC3)CC2)cc2[nH]c(-c3ccc(OC(F)F)c(F)c3)nc12` [Example 69, 2-(4-(difluoromethoxy)-3-fluorophenyl)-6-(1′-isobutyl-[1,4′-bipiperidin]-4-yl)-4-methyl-1H-benzo[d]imidazole tris(2,2,2-trifluoroacetate)], it took 240 nM to reach half-maximal inhibition under setting [2] (IC50) and the IC50 under setting [1] worked out at 241 nM.

Turning to `Cc1cc(C2CCN(C3CCCN(C(C)C)CC3)CC2)cc2c1nc(-c1ccc(S(C)(=O)=O)cc1)n2C` (stereo not shown) [Example 134, 6-(1-(1-isopropylazepan-4-yl)piperidin-4-yl)-1,4-dimethyl-2-(4-(methylsulfonyl)phenyl)-1H-benzo[d]imidazole], the IC50 stood at 21 nM. For the same compound, under setting [1], the 50% inhibitory concentration (IC50) is 20 nM.

Regarding `COc1ccc(-c2nc3c(F)cc(C4CCN(C5CCN(CC(C)C)CC5)CC4)cc3[nH]2)cc1OC` [Example 127, 2-(3,4-dimethoxyphenyl)-4-fluoro-6-(1′-isobutyl-[1,4′-bipiperidin]-4-yl)-1H-benzo[d]imidazole], the midpoint of inhibition, the IC50, lay at 31 nM. Further, the half-inhibitory concentration (IC50) under setting [1] came out at 31 nM.

With `Cc1cc(C2CCN(C3CC4(C3)CN(CC3CC3)C4)CC2)cc2c1nc(-c1ccc(S(C)(=O)=O)cc1)n2C` [Example 142, 6-(1-(2-(cyclopropylmethyl)-2-azaspiro[3.3]heptan-6-yl)piperidin-4-yl)-1,4-dimethyl-2-(4-(methylsulfonyl)phenyl)-1H-benzo[d]imidazole], half-maximal inhibition (IC50) was put at 68 nM. For the same compound, the IC50 under setting [1] was 68 nM.

The values above are taken from patent US12492188B2, “1H-benzo[D]imidazole derivatives as TLR9 inhibitors for the treatment of fibrosis” (BRISTOL-MYERS SQUIBB COMPANY, priority 2020, dated 2025).
